Laboratory results taken from US20260132129A1 (Genesis Therapeutics, Inc., priority 2022, published 2026).

Biological target: T1, PI3Kα H1047R (T47D cells) (Homo sapiens, UniProt P42336, H1047R)
T1 construct: endogenous in cells; host or cells: T47D cells
Assay: PI3Kα cellular assay: pAKT HTRF in T47D cells after EGF stimulation
Type: cell-based
Conditions: for IC50: T47D cells (PI3Kα H1047R), pAKT S473 HTRF
In short: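 pAKT read by HTRF in lysates of EGF-stimulated (20 ng/mL, 10 min) T47D H1047R cells. Before stimulation, serum-starved cells (16 h) received compound for 1 h at 37 °C, dosed from 10,000 nM down to 0.5 nM in 3-fold steps.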

[1] = selectivity of T47D (H1047R) over SKBR3 (WT) pAKT IC50
[2] = 1 hr compound, 20 ng/ml EGF 10 min
[3] = selectivity T47D (H1047R) over SKBR3 (WT), pAKT HTRF

T1 sequence (P42336 whole entry H1047R): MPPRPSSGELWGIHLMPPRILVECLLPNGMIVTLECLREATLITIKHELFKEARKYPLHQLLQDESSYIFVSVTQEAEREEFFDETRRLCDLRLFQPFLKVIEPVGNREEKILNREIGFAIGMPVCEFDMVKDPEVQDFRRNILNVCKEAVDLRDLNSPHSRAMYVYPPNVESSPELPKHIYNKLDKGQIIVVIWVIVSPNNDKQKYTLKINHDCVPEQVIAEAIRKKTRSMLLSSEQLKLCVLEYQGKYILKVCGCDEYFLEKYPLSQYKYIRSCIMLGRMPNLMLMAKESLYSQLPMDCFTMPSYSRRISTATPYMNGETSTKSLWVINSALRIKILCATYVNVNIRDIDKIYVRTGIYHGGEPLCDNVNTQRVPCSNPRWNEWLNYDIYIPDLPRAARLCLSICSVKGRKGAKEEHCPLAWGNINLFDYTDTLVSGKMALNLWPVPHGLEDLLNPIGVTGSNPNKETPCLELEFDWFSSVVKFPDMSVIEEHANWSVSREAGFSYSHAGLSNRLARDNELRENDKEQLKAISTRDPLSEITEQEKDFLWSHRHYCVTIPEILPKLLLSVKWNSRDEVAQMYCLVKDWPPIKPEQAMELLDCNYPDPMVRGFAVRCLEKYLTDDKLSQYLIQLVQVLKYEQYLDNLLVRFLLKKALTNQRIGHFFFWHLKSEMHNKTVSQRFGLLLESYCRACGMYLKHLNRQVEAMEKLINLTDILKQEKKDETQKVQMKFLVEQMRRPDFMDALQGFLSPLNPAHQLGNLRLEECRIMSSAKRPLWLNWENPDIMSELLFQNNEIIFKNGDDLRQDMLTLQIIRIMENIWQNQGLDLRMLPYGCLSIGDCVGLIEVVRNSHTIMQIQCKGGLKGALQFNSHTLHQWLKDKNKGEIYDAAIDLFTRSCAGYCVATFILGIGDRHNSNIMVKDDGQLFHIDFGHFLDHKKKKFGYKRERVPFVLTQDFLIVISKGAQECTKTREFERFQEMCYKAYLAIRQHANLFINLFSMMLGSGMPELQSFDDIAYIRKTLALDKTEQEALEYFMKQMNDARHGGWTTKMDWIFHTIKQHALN
T1 sequence (P27986 whole entry partner): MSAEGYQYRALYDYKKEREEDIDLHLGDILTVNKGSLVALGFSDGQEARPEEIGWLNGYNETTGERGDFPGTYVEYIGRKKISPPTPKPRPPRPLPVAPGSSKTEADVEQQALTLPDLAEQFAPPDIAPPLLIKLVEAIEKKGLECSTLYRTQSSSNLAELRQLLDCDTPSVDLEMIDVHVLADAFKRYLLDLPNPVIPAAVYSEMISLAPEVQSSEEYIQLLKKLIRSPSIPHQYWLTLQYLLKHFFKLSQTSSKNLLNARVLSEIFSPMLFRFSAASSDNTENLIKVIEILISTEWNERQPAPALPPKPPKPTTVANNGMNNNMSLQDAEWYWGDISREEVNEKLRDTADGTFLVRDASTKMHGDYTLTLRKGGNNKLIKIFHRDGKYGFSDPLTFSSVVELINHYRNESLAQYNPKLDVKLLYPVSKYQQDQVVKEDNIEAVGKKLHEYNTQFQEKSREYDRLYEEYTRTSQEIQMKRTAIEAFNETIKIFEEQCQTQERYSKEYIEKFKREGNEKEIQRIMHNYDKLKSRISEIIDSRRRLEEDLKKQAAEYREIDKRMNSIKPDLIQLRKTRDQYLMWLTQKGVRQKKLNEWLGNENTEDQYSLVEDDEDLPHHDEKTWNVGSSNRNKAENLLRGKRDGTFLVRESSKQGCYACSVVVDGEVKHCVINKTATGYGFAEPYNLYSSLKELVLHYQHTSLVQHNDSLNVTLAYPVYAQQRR

| SMILES | T47D pAKT S473 HTRF IC50 (H1047R): T47D (H1047R) selectivity over SKBR3 (WT) [1] | IC50 [2] [nM] | T47D pAKT S473 HTRF IC50 (H1047R): T47D (H1047R) selectivity over SKBR3 (WT) [3] | IC50 (EGF stimulation) [nM] |
| --- | --- | --- | --- | --- |
| Cc1cc([C@H](C)Nc2ccccc2C(=O)O)c2nc(N3CC4(CCNCC4)C3)c(C)c(=O)n2c1 [Compound 917] | C (C denotes ≤5-fold) | – | – | – |
| Cc1cc(C(C)Nc2ccccc2S(N)(=O)=O)c2nc(-c3cc(C)c4oc(=O)[nH]c4c3)cc(=O)n2c1 (centres unmarked) [Compound 570] | – | 100 to 500 | A (A denotes >20-fold) | – |
| Cc1cc([C@H](C)N(C)c2ccccc2C(=O)O)c2nc(N3CCOCC3)cc(=O)n2c1 [Compound 310] | – | > 2000 | C (C denotes ≤5-fold) | – |
| Cc1cc([C@H](C)Nc2ccccc2C(=O)O)c2nc(N3CCOC[C@H]3C)cc(=O)n2c1 [Compound 297] | – | 100 to 500 | A (A denotes >20-fold) | – |
| Cc1cc(C(C)Nc2cccc(CO)c2C(=O)O)c2nc(-c3ccc4c(c3)c(C)nn4C)cc(=O)n2c1 (centres unmarked) [Compound 933] | C (C denotes ≤5-fold) | – | – | > 2000 |
| COc1ccc(-c2nc3c([C@@H](C)Nc4ccccc4C(=O)O)cc(C)cn3c(=O)c2C)cc1 [Compound 1070] | – | – | A (A denotes >20-fold) | < 100 |
| Cc1cc([C@H](C)Nc2cccc3[nH]nnc23)c2nc(N3CCOCC3)cc(=O)n2c1 [Compound 745] | C (C denotes ≤5-fold) | – | – | – |
| Cc1cc(C(C)N(C)c2ccccc2S(N)(=O)=O)c2nc(N3Cc4ccccc4C3)cc(=O)n2c1 (centres unmarked) [Compound 836] | C (C denotes ≤5-fold) | – | – | > 2000 |
| Cc1cc(C(C)Nc2ccccc2C(=O)O)c2nc(C3=CCC(C4CN(C)C4)C=C3)c(C)c(=O)n2c1 (centres unmarked) [Compound 1322] | – | – | C (C denotes ≤5-fold) | – |
| Cc1cc(C(C)Nc2ccccc2C(=O)O)c2nc(-c3ccc4[nH]c(=O)[nH]c4c3)cc(=O)n2c1 (centres unmarked) [Compound 514] | – | 500 to 2000 | B (B denotes 20-fold≥value>5-fold) | – |
| Cc1cc([C@@H](C)Nc2ccccc2C(=O)O)c2nc([C@@H]3CCOC3)cc(=O)n2c1 [Compound 538] | – | > 2000 | C (C denotes ≤5-fold) | – |
| C=CC(=O)Nc1cc(C(C)Nc2ccccc2C(=O)O)c2nc(N3Cc4ccccc4C3)cc(=O)n2c1 (centres unmarked) [Compound 939] | C (C denotes ≤5-fold) | – | – | > 2000 |
| Cc1cc([C@H](C)Nc2ccccc2C(=O)O)c2nc(-c3ccc4c(c3)NC(=O)C4)cc(=O)n2c1 [Compound 576] | – | > 2000 | C (C denotes ≤5-fold) | – |
| Cc1cc([C@H](C)Nc2cccc3c2OCC(=O)N3)c2nc(N3CCOCC3)cc(=O)n2c1 [Compound 686] | C (C denotes ≤5-fold) | – | – | > 2000 |
| Cc1cc([C@H](C)Nc2ccccc2C(N)=O)c2nc(-c3ccc4c(C)cn(C)c4c3)c(C)c(=O)n2c1 [Compound 1131] | – | – | C (C denotes ≤5-fold) | > 2000 |
| Cc1cc([C@@H](C)Nc2ccccc2C(=O)O)c2nc(N3Cc4ccccc4[C@H]3C)cc(=O)n2c1 [Compound 655] | C (C denotes ≤5-fold) | – | – | > 2000 |
| Cc1cc([C@@H](C)Nc2ccccc2S(N)(=O)=O)c2nc(N3Cc4ccccc4C3)c(C)c(=O)n2c1 (single isomer, unassigned) [Compound 856] | A (A denotes >20-fold) | – | – | < 100 |
| Cc1cc([C@@H](C)Oc2ccccc2C(=O)O)c2nc(-c3cccc(F)c3)c(C)c(=O)n2c1 [Compound 1372] | – | – | C (C denotes ≤5-fold) | > 2000 |
| Cc1cc([C@H](C)Nc2ccccc2C(=O)O)c2nc(-c3cccc(C(F)F)c3)cc(=O)n2c1 [Compound 1114] | – | – | A (A denotes >20-fold) | < 100 |
| Cc1cc([C@H](C)Nc2ccccc2-n2nn[nH]c2=O)c2nc(N3CCOCC3)cc(=O)n2c1 [Compound 344] | – | > 2000 | C (C denotes ≤5-fold) | – |
| CC#Cc1nc2c([C@@H](C)Nc3ccccc3C(=O)O)cc(C)cn2c(=O)c1C [Compound 1205] | – | – | C (C denotes ≤5-fold) | > 2000 |
| Cc1cc([C@@H](C)Nc2ccccc2C(N)=O)c2nc(N3CCOCC3)cc(=O)n2c1 [Compound 146] | – | > 2000 | C (C denotes ≤5-fold) | – |
